Earlier results in patent publication US20080153832A1, “PAN-ALPHA-2 RECEPTOR AGONIST AND RELAXANT COMPOSITIONS FOR TREATING GASTROINTESTINAL MOTILITY DISORDERS” (Allergan, Inc., priority 2006, published 2008).

CN(C)[C@@H](CCOc1cccc2ccccc12)c1ccccc1 [Dapoxetine]
time to maximum serum concentration: about 1 hour
